ChEMBL document CHEMBL1155184, “Kojic acid-amino acid conjugates as tyrosinase inhibitors” (Bioorg Med Chem Lett, 2009)

Molecular target: T1, Tyrosinase (Agaricus bisporus, UniProt O42713)
T1 sequence (O42713 whole entry): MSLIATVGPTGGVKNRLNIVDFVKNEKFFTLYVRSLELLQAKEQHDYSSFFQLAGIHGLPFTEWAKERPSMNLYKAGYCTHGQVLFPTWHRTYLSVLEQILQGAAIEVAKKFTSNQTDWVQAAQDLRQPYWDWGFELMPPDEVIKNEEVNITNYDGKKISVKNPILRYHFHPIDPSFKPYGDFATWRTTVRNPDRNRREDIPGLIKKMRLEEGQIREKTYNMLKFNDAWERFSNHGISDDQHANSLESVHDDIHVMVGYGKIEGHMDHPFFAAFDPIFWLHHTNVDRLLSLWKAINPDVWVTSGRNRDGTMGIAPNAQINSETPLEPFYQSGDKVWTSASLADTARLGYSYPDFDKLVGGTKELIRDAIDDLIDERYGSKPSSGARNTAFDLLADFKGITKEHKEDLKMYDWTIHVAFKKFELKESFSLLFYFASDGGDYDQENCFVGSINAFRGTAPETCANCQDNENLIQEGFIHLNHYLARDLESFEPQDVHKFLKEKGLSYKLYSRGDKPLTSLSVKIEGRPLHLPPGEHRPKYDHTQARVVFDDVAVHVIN
Test: Inhibition of mushroom tyrosinase assessed as oxidation of L-DOPA

IC50: 14.7 µM | Ki: 11 µM
Structure (SMILES): NC(=O)[C@H](Cc1ccccc1)NC(=O)OCc1cc(=O)c(O)co1
